Measurements as given in BindingDB's records for doi:10.1016/s0960-894x(01)00331-6 (Dupont Pharmaceuticals, 2001).

Molecular target: T1, Gag-Pol polyprotein [588-1027]/[588-1147] (Human immunodeficiency virus 1, UniProt P04585)
T1 construct: 588-1027; 588-1147
Assay: HIV-1 RT Assay
Settings: pH 8.2; 37 °C
Source text: The IC50 of reverse transcriptase is the concentration that inhibits 50% of recombinant HIV-1 RT RNA-directed DNA polymerase activity in vitro.

Row | Compound | IC50
1 | O=C1Nc2ccc(Cl)cc2[C@@](C#CC2CC2)(C(F)(F)F)[C@H]1NCc1ccccc1 [(3R,4R)-3-(benzylamino)-6-chloro-4-(2-cyclopropylethynyl)-4-(trifluoromethyl)-1,2,3,4-tetrahydroquinolin-2-one] | > 2000 nM
2 | CC(C)=CCO[C@H]1C(=O)Nc2ccc(Cl)cc2[C@@]1(C#CC1CC1)C(F)(F)F [(3R,4R)-6-chloro-4-(2-cyclopropylethynyl)-3-[(3-methylbut-2-en-1-yl)oxy]-4-(trifluoromethyl)-1,2,3,4-tetrahydroquinolin-2-one] | > 2000 nM
3 | O=C1Nc2ccc(Cl)cc2[C@@](C#CC2CC2)(C(F)(F)F)[C@H]1O [(3R,4R)-6-chloro-4-(2-cyclopropylethynyl)-3-hydroxy-4-(trifluoromethyl)-1,2,3,4-tetrahydroquinolin-2-one] | > 2000 nM
4 | CC(=O)N[C@H]1C(=O)Nc2ccc(Cl)cc2[C@@]1(C#CC1CC1)C(F)(F)F [N-[(3R,4R)-6-chloro-4-(2-cyclopropylethynyl)-2-oxo-4-(trifluoromethyl)-1,2,3,4-tetrahydroquinolin-3-yl]acetamide] | > 2000 nM
5 | COC(=O)N[C@H]1C(=O)Nc2ccc(Cl)cc2[C@@]1(C#CC1CC1)C(F)(F)F [methyl N-[(3R,4R)-6-chloro-4-(2-cyclopropylethynyl)-2-oxo-4-(trifluoromethyl)-1,2,3,4-tetrahydroquinolin-3-yl]carbamate] | > 2000 nM
